Test [1] has as its system Klebsiella pneumoniae harboring NDM-1. Put plainly: Time-kill study with meropenem. The test is classed as cell-based. Conditions: 4 mg/L meropenem alone. The method, then:
Mueller-Hinton broth (MHB) was warmed from fridge temperature cold. […] A sample of Example 26 was dissolved in DMSO.
The 96-well plates were prepared using a multi-channel pipette, adding […] PBS to columns 2-9, or the required number of dilutions needed in the experiment. Each Inoculum was prepared by picking a single colony from the fresh plate that was disperged into 1 mL MHB, the loop was agitated to ensure all the colony comes off the loop. The tube was Vortex mixed, and a 100 μL aliquot was taken from the tube into 9.9 mL of MHB into the media bottle. […] The procedure was repeated for as many samples needed in the study. Aliquots of 5 mL inoculum were transferred to as many media bottles as needed, e.g. 4 mg/L MEM, 4 mg/L MEM+50 μM test substance, 4 mg/L MEM+100 μM test substance. Then […] aliquots were taken from each culture and added to Column 1 on the 96 well plate, e.g. culture 1: 50 μl into A1, […] into B1 etc. for time point 0 h. Then […] MEM was added into each bottle, followed by the required amount of test substance. The bottles were mixed gently to avoid formation of bubbles, and incubated in a secondary container at 37° C. at 180 rpm. Finally, serial dilutions were performed using multi-channel pipette taking 30 μL for column 1, adding to column 2, mixing well, repeating from column 2 to 3 with clean pipette tips.

In test [2] the test system is Klebsiella pneumoniae strain 50752501 harbouring NDM-1. The experiment in a line: In vivo peritonitis infection study in neutropenic mice. On the set-up: Score at sampling: scale not given here. The method, then: The purpose of this study was to investigate the synergy between a typical example of the present invention and a state of art carbapenem in a clinically relevant multiresistant Gram-negative bacterial strain harboring a metallo-β-lactamase in the treatment of live mice infected with the bacterial strain.
The mice were rendered neutropenic by injecting 0.5 ml cyclophosphamide solution intraperitoneally 4 days (approximately 200 mg/kg) and 1 day (approximately 100 mg/kg) prior to inoculation.
Fresh overnight colonies from a 5% Horse Blood Agar plate were suspended and diluted in sterile saline to approximately and 10^7 CFU/ml. Mice were inoculated intraperitoneally with 0.5 ml of the suspension. Approximately ½ hr prior to inoculation, mice were treated orally with 45 μl neurophen (20 mg ibuprofen/ml corresponding to approximately 30 mg/kg) as a pain relief.
Mice were treated subcutaneously in the neck region with.
Colony counts were determined from blood and peritoneal fluid at 1 and 5 hrs post inoculation. […] The mice were sacrificed immediately after blood sampling and a total of 2 ml sterile saline was injected i.p. and the abdomen gently massaged before it was opened and fluid sampled with a pipette. Each sample was then 10 fold serial diluted in saline and 20-μl spots, ranging from undiluted to a 10^6 dilution, were applied on agar plates in duplicates. […] All agar plates were incubated 18-22 hrs at 35° C. in ambient air.

For the next test, the system named is K. pneumoniae (VIM). Put plainly: Microbroth dilution MIC of meropenem ± 25 mg/L inhibitor. The test is classed as cell-based. Particulars: Klebsiella pneumoniae, read-out: MIC meropenem alone. The method, then: (§1) • Plate bacterial strain(s) on appropriate media: • Gram-negative bacteria with ESBLs or carbapenemases: green agar plates with 100 mg/L ampicillin • Gram-negative bacteria without β-lactamases: green agar plates • Gram-positive bacteria (Staphylococci and Enterococci): blood agar plates • Incubate o.n. at 37° C. Day 2: Prepare the Bacterial Inoculum: • Prepare a 0.5 McFarland suspension of bacteria in 0.85% NaCl. (Should be used within 15 min of preparation). • Dilute the 0.5 McFarland suspension 1:100 into MH broth. Check the inoculum by diluting the prepared bacterial suspension 1:100 (10 μl bacterial suspension+990 μl 0.85% NaCl). Plate 10 μl of the dilution on MH agar plates (×2). Incubate o.n. at 37° C., count the colonies and calculate the final CFU/ml inoculum in the plate by multiplying the average number of colonies with 10000 and divide by 2. The final inoculum should be between 3-7×10^5 CFU/ml. • Add 50 μl of the prepared bacterial suspension to each well in the microtiter plate except negative growth control. Preparation of Compounds/Antibiotics • Calculate the desired concentration-range and volume of the compounds/antibiotics in the assay. […] Dilute the stock solution in MH broth. Make subsequent 2-fold dilutions in MH broth of the desired concentrations if a concentration range is to be tested (remember the extra dilution factor in the assay plate). Always include extra volume for pipetting. Take into consideration stock solutions that are made in buffers that have an effect on bacterial growth (e.g. DMSO).
(In general: Dilution methods test growth across graded concentrations, often in twofold steps.)

The next test concerns K. pneumoniae (NDM-1). The test is described as above. In kind it is cell-based. The protocol:
as §1

In another test the test system is C. freundii (NDM-1). The description is as above. Conditions: Citrobacter freundii, read-out: MIC meropenem alone. In kind it is cell-based. The method, then:
as §1

Test [3] concerns M. morganii (OXA48+ NDM-1). Described as above. Particulars: Morganella morganii, read-out: MIC meropenem alone. The test is classed as cell-based. The protocol: as §1
A further test has as its system C. freundii (NDM). The test is described as above. In kind it is cell-based. Conditions: Citrobacter freundii, read-out: MIC meropenem alone. The method, then:
as §1

For the next test, the system named is E. cloacae (VIM). Described as above. In kind it is cell-based. Conditions: Enterobacter cloacae, read-out: MIC meropenem alone. The protocol: as §1
Another test concerns P. stuartii (NDM). Described as above. The test is classed as cell-based. Conditions: Providencia stuartii, read-out: MIC meropenem alone. The method, then: as §1
The subject of the next test is E. coli (VIM-1). The test is described as above. In kind it is cell-based. Particulars: Escherichia coli, read-out: MIC meropenem alone. The protocol:
as §1

In another test the test system is P. stuartii (NDM-1). The test is described as above. Conditions: Providencia stuartii, read-out: MIC meropenem alone. In kind it is cell-based. The protocol: as §1
A further test deals with P. mirabilis (NDM-1). Described as above. The test is classed as cell-based. Particulars: Proteus mirabilis, read-out: MIC meropenem alone. The protocol: as §1
A further test has as its system K. pneumoniae (NDM-7). Described as above. In kind it is cell-based. Conditions: Klebsiella pneumoniae, read-out: MIC meropenem alone. The protocol:
as §1

Where [4] appears, read: vehicle + meropenem 33 mg/kg, sampling T = 5, individual mice.

Molecules are shown by their SMILES. “And” between values parts separate entries of the source, which are not always exact repeats. Equal entries are not always repeated.

The results in this text go back to patent US11649222B2, “Compounds” (UNIVERSITETET I OSLO, priority 2016, dated 2023).

As usually defined, the MIC is the smallest concentration in the dilution series that meets the test's criterion for growth inhibition.

Regarding `C[C@@H](O)[C@H]1C(=O)N2C(C(=O)O)=C(S[C@@H]3CN[C@H](C(=O)N(C)C)C3)[C@H](C)[C@H]12` [meropenem, reference compound], the “time after which CFU starts to increase” value in test [1] is “about 5 hours”. Besides, the “lower CFU levels compared to vehicle treatment, blood” value in [2] (meropenem alone) turned out to be 2.5 log10. The “lower CFU levels compared to vehicle treatment, peritoneal fluid” value in test [2] (meropenem alone) is reported as 2.2 log10. Moreover, in test [2] (peritoneal fluid, vehicle + meropenem 33 mg/kg, sampling T = 5), the “Pf log CFU/ml mean” value turned out to be 5.22 log CFU/ml. Besides, the “Pf log CFU/ml” value in [2] (peritoneal fluid, vehicle + meropenem 33 mg/kg, sampling T = 5, individual mice) was 5.72 log CFU/ml and 4.60 log CFU/ml and 5.30 log CFU/ml and 5.24 log CFU/ml. The “Blood log CFU/ml mean” value in [2] (vehicle + meropenem 33 mg/kg, sampling T = 5) amounted to 2.98 log CFU/ml. The “Blood log CFU/ml” value in test [2] (setting [4]) was 3.51 log CFU/ml (2×) and 2.80 log CFU/ml and 2.10 log CFU/ml. Moreover, the Score at sampling in [2] (setting [4]) was 2. Besides, the MIC in the test with K. pneumoniae (VIM) worked out at 4 µg/mL; in the test on K. pneumoniae (NDM-1) (Klebsiella pneumoniae, read-out: MIC meropenem alone, K. pneumoniae NDM-1 (several strains)) it was 64 µg/mL; in the test with C. freundii (NDM-1) it was 4 µg/mL; in test [3], 8 µg/mL; in the test on C. freundii (NDM), 16 µg/mL; with E. cloacae (VIM), 8 µg/mL. The minimum inhibitory concentration (MIC) in the test with P. stuartii (NDM) was 64 µg/mL; in the test on E. coli (VIM-1), 0.5 µg/mL; in the test on P. stuartii (NDM-1), 8 µg/mL; with P. mirabilis (NDM-1) it was 32 µg/mL; in the test with K. pneumoniae (NDM-7), 64 µg/mL. Moreover, the MIC meropenem alone with K. pneumoniae (NDM-1) (K. pneumoniae NDM-1 (several strains)) amounted to 32 µg/mL.
